In one test the test system is myeloid colonies. Put plainly: Experiment 3: myeloid colonies in cord blood cultured without added growth factors. Format: cell-based, human. Conditions: no added growth factors. Here is the method: (§1) Erythroid burst-forming units (BFU-E) (erythroid progenitors) and colony-forming units granulocyte-macrophage (CFU-GM) (myeloid colonies) were cultured in semi-solid or in two-phase suspension media, with or without hematopoietic growth factors at high levels (e.g., erythropoietin at 3 U/ml) or reduced levels (BFU-E cell proliferation was evaluated by enumeration in colonies developing in the presence of reduced amounts of erythropoietin (0.5 U/ml) rather than 3 U (or 3000 mU)/ml, which is standard for these experimental systems), from cord blood or the peripheral blood of several types of humans. Experiments were carried out on samples derived from 1) β-thalassemia patients who expressed variable levels of fetal globin at baseline (and in untreated control cultures) and represent a variety of potential individual responses, 2) from normal umbilical cord blood samples, which express 40-50% fetal globin at baseline (and in untreated control cultures), 3) from CD34+ cells isolated from normal adult peripheral blood, which expressed low levels of fetal globin in untreated control cultures and at baseline; and 4) from peripheral blood of patients with sickle cell disease who were receiving treatment with hydroxyurea. These biological samples provide a range of potential difficulty in stimulating fetal globin expression in human patients.
Control colonies were established in cultures with no added growth factors to support myelopoiesis, in Iscove's Modified Dulbecco's Media (IMDM) methylcellulose media with charcoal-absorbed fetal bovine serum, beta mercaptoethanol, BSA.

For test [1], the system named is Erythroid colonies (BFU-E). Put plainly: Experiment 2: erythroid colonies (BFU-E) cultured from patients with beta thalassemia. Format: cell-based, human. Conditions: optimal panel of growth factors. How it is done: as §1
Erythroid colonies were cultured from patients with beta thalassemia, either without any test compounds (Control), only an optimal panel of hematopoietic growth factors, or with one of the test compounds M, P, T, 2-methyl-1-benzofuran-4-carboxylic acid, V, W, X, Y, AK, AC, or AI. […] Colony numbers were increased above the control cultures (% BFU-E/Control) by anywhere from 25% to 230%. Each of the listed test compounds was tested in at least 5 different patients' blood and the differences were statistically significant.

The test system of the next test is BFU-E. Put plainly: BFU-E cultured from cord blood. The format is cell-based, human. How it is done: as §1
In a related study, BFU-E cultured from cord blood, was tested with or without compound M, P, R, T, W, Y, Z, AI, F, or 3-(5-chlorothien-3-yl)acrylic acid.

For a further test, the system named is γ globin promoter. Put plainly: β/γ-globin promoter driven reporter gene assay. Format: cell-based. As to conditions: Table 2. (In general: In a reporter assay the amount or activity of a reporter protein is the signal.)
The next test has as its system γ-globin gene reporter. Put plainly: Related study: relative luciferase reporter gene induction. Format: cell-based. Here is the method: (§2) In a related study, the relative luciferase reporter gene induction, γ-globin gene induction, and F cell production was tested for several of the candidate compounds. The relative in vitro γ-globin gene reporter stimulation for the tested compounds was as follows: compound P>M>W=R=Y. The relative in vitro γ-globin gene induction for the tested compounds was as follows: P>R=M>Y>W>. The relative in vitro F-cell production was as follows: W>Y>R>M>P. The relative potency for F-cell production was as follows: R>M>Y>P>W.

A further test deals with γ-globin mRNA. Put plainly: γ-globin mRNA by RT-PCR in erythroid colonies cultured from cord blood. Format: cell-based, human. Conditions: for Concentration required: increase in fetal globin mRNA, erythroid colonies from cord blood; for No. of Positive responses: positive cultures/cultures tested. How it is done:
γ-globin mRNA was analyzed in control and treated erythroid colonies cultured from cord blood, by RT-PCR.

The next test concerns fetal globin mRNA. Put plainly: Fetal globin induction in phlebotomized anemic baboons. Format: in vivo, baboon. How it is done:
Juvenile baboons were catheterized with venous and arterial catheters, and were phlebotomized a set amount of blood daily to maintain anemia with a hemoglobin level of 7.0-7.5 g/dl, from a baseline normal hemoglobin level of (12-13 g/dl). Normal saline was infused to replace the amount of blood withdrawn. This degree of phlebotomy exchanges the blood volume every 10-20 days.
Fetal globin mRNA was analyzed at baseline anemia before and following administration of test compounds. Globin chain protein synthesis confirmed the mRNA findings.
Following establishment of the stable level of anemia, a test compound was administered once/day, either intravenously or orally, and blood was withdrawn through the arterial catheter for analysis of globin mRNA or for analysis of the test compound in the plasma by HPLC-MS. Pharmacokinetic profiles were established from the plasma levels and oral bioavailability (comparing area under the curve between IV and oral plasma levels) was determined for the test compounds.
In anemic Baboon 5002, baseline fetal globin mRNA, assayed by RNAse protection, was 26% of non-alpha globin. With treatment with compound Y at 5 mg/kg/dose, fetal globin mRNA increased to 48% of non-alpha globin, an 85% increase over the baseline level. Treatment with compound AK at 50 mg/kg induced a 51% fetal globin mRNA increase, a 96% increase over the baseline level. […] The human equivalent dose is 20% of these doses, or 1 mg/kg, 10 mg/kg, or 8 mg/kg respectively. Thus, these 3 compounds are highly suitable for pharmaceutical compositions at doses that human patients can readily tolerate.

The test system of another test is F-cell. Put plainly: Related study: in vitro F cell production. Format: cell-based. Here is the method: as §2
In test [2] the test system is cells expressing fetal globin (F-cells). Put plainly: Experiment 1: proportion of F-cells in hematopoietic colonies by FACScan. Format: cell-based, human. As to conditions: same low concentrations as for fetal globin mRNA induction. How it is done:
as §1
Hematopoietic colonies were enumerated with or without (+/−) the test compounds, and compared to colonies which developed in the presence of hematopoietic growth factors alone from the same subject (untreated control colonies), and proportions of cells expressing fetal globin (F-cells) were analyzed by FACScan analysis.

The test system of the next test is γ-globin gene. Put plainly: Related study: relative in vitro γ-globin gene induction. Format: cell-based. How it is done: as §2
The subject of test [3] is Erythroid cells cultured from adult blood. Put plainly: Experiment 4: erythroid cells cultured from adult blood CD34+ cells (cell counts, qRT-PCR, HPLC of hemoglobins). The format is cell-based, human. How it is done:
Erythroid cells cultured from adult blood are low-HbF expressing and are the most difficult to alter with regard to globin expression. This experiment analyzed erythroid cells cultured from adult blood in the presence or absence of representative test compounds.
Erythroid cells were generated by culturing purified CD34+ cells in Flt-3 ligand, stem cell factor (SCF) and IL-3 for seven days followed by growth in EPO for 14 days. For treatment, cells were cultured as above in a T75 flask then split into multiple flasks on day 8 and treatment with the test compounds was begun. Compound P or other test compounds were diluted from stock solutions with the microliter volumes of stock added to each culture flask for final working concentrations. Cells were enumerated every two days by hemacytometer count. RNA was harvested from 10^6 cells every two days using RNeasy Plus Mini Kit (Qiagen) and qRT-PCR performed using IQ SybrGreen Supermix on an Opticon Monitor instrument (MJ Research). […] Separation of hemoglobins was performed by cation exchange HPLC using a 35×4.6 mm; […] PolyCAT A column (Nest Group) as described previously by Cheryl Rognerud and Ching-Nan Ou, and outlined by the column manufacturer.
QPCR primers were designed using known sequences for α-globin, β-globin, γ-globin, β-actin and B3PD. Primers were designed to span at least one […].
Background: In qPCR the cycle at which signal appears reflects the starting amount.

Test [4] relates to fetal globin gene promoter. Put plainly: Example 8: factor occupancy of globin gene promoters in primary erythroid cells. The format is cell-based. An excerpt: This is a selective effect on the fetal (gamma globin) gene promoter, without generalized widespread epistatic effects or any effects on the beta globin promoter, as other agents tend to cause. The transcription factor EKLF and the remodeling complex Brg1 and Pol II became bound to the promoter in association with gene activation. In contrast, there were no effects on the beta globin gene promoter. These compounds therefore produce highly specific activating effects solely on the globin gene promoter which would be beneficial to induce for therapy of the beta globin gene disorders, and provide a targeted molecular activity.

The test system of another test is Erythroid colonies. Put plainly: Experiment 6: erythroid colony growth from sickle cell patients receiving hydroxyurea. The format is cell-based, human. How it is done: Erythroid colonies from the peripheral blood of 4 patients with sickle cell disease who were receiving treatment with Hydroxyurea (HU), a chemotherapeutic agent which suppresses marrow growth and reduces red blood cell production, were cultured alone or with added test compounds M, P, 2-methyl-1-benzofuran-4-carboxylic acid, V, W, Y (racemic mixture) or AI. L-arginine was added as a neutral control, and had no effect on numbers of erythroid colonies.
2-methyl-1-benzofuran-4-carboxylic acid and compound V require additional samples for statistical evaluation, but had positive effects in 3/3 different patients' cultures. These findings indicate that the test compounds stimulate erythroid cell production particularly in conditions of anemia and bone marrow suppression.

Regarding `CCOc1ccc(C(=O)O)cc1` [AI], the “production of myeloid colonies compared to untreated control” value (“production … compared to untreated control” for short) in the test with myeloid colonies is on record as “stimulated production of myeloid colonies”. Besides, in [1], the “number of erythroid colonies compared to matched control cultures” value (shortened to “number … compared to matched control cultures”) is on record as “increased the number of colonies”. In addition, in the test on BFU-E, the “numbers of BFU-E colonies compared to controls” value (from here on “numbers … compared to controls”) is given as “increased numbers of colonies”. In the test with γ globin promoter, the “% γ globin promoter induction (above untreated control)” value (shortened to “% γ globin promoter induction”) is on record as “** (‘**’ indicates a 100%-200% increase)”.

As to `CCC(Nc1ncnc2ccccc12)C(=O)O` (stereo not drawn) [Compound M], in the test on myeloid colonies, the “production … compared to untreated control” value is given as “stimulated production of myeloid colonies”. In addition, the “relative in vitro γ-globin gene reporter stimulation (rank order)” value in the test with γ-globin gene reporter is “P>M>W=R=Y”. Also, in the test on γ-globin mRNA, the “Concentration required” value was found to be 5 µM and the “No. of Positive responses” value is reported as 4/6. Further, in the test with fetal globin mRNA (Baboon 5002, 40 mg/kg), the “increase over the baseline level of fetal globin mRNA” value came to 257%. In addition, the “fetal globin mRNA (% of non-alpha globin)” value in the test on fetal globin mRNA (Baboon 5002, 40 mg/kg, baseline 26%) was 67%. Moreover, in the test on F-cell, the “relative in vitro F-cell production (rank order)” value is on record as “W>Y>R>M>P” and the “relative potency for F-cell production (rank order)” value is recorded as “R>M>Y>P>W”. Besides, in [1], the “number … compared to matched control cultures” value was “increased the number of colonies”. Besides, in [2], the “proportion of F-cells above the percentage in untreated controls” value was “significant increases”. Further, in the test with γ-globin gene, the “relative in vitro γ-globin gene induction (rank order)” value is reported as “P>R=M>Y>W”. Further, the “numbers … compared to controls” value with BFU-E is given as “increased numbers of colonies”. Further, the “% γ globin promoter induction” value with γ globin promoter was “** (‘**’ indicates a 100%-200% increase)”.

For `O=C(O)c1cccc(-c2cc3ccccc3oc2=O)c1` [Compound P], the “Cell counts vs cells cultured with erythropoietin alone” value in [3] (20 microM) is “increased”. Further, the “increase in expression of fetal globin (Hemoglobin F protein) vs untreated control” value in test [3] (100 micromolar, one cycle of erythroid differentiation) worked out at 19 fold. Further, in test [3] (different doses), the “production/expression of alpha globin” value was “no effect”. For the same compound, in [3] (same doses as increases in fetal globin mRNA), the “production of beta globin” value is recorded as “reciprocal decrease”. The “relative in vitro γ-globin gene reporter stimulation (rank order)” value in the test with γ-globin gene reporter was “P>M>W=R=Y”. For the same compound, in test [4], the “EKLF and Brg1 ATPase proteins at the gamma-globin gene promoter” value is “induced recruitment”; the “effects on the beta globin gene promoter” value is on record as “no effects”; the “repressor complex of HDAC3, NCoR at the fetal globin gene promoter” value was “displacement of a repressor complex of HDAC3, NCoR”. In the test with γ-globin mRNA, the “Concentration required” value stood at 20 µM and the “No. of Positive responses” value was 6/6. Moreover, in the test with fetal globin mRNA (phlebotomized anemic baboon with no baseline fetal globin), the “induction of fetal globin (% of globin expression)” value was 7%. Besides, the “beta globin expression” value in the test on fetal globin mRNA (same baboon, baseline 100% beta globin) is “concommitant reduction”. Also, in the test on F-cell, the “relative in vitro F-cell production (rank order)” value is listed as “W>Y>R>M>P” and the “relative potency for F-cell production (rank order)” value is reported as “R>M>Y>P>W”. In test [1], the “number … compared to matched control cultures” value is recorded as “increased the number of colonies”. For the same compound, the “proportion of F-cells above the percentage in untreated controls” value in [2] is on record as “significant increases”. Moreover, in the test on γ-globin gene, the “relative in vitro γ-globin gene induction (rank order)” value is reported as “P>R=M>Y>W”. Moreover, the “numbers … compared to controls” value in the test with BFU-E was “increased numbers of colonies”. Further, in the test with γ globin promoter, the “% γ globin promoter induction” value is on record as “*** (‘***’ indicates an over 200% increase of γ globin promoter induction over untreated controls)”.

Turning to `NC(=O)NO` [Hydroxyurea], in the test with Erythroid colonies, the “effect on numbers of erythroid colonies compared to control” value was “decreased numbers of erythroid colonies”.

As to `N=C(N)NCCC[C@H](N)C(=O)O` [L-arginine], the “effect on numbers of erythroid colonies compared to control” value in the test with Erythroid colonies was “no effect”.

Regarding `O=C(O)c1ccc(-c2ccccc2[N+](=O)[O-])o1` [X], the “production … compared to untreated control” value in the test on myeloid colonies is reported as “stimulated production of myeloid colonies”. Moreover, in test [1], the “number … compared to matched control cultures” value is “increased the number of colonies”. Also, the “proportion of F-cells above the percentage in untreated controls” value in [2] is given as “significant increases”. Moreover, in the test on γ globin promoter, the “% γ globin promoter induction” value was “** (‘**’ indicates a 100%-200% increase)”.

Values taken from patent US9095565B2, “Methods for treating blood disorders” (Phoenicia Biosciences, Inc., priority 2006, dated 2015).
